Patent US4731373A, “Glycerin derivatives and inhibition of blood PAF” (Hoffman-La Roche Inc., priority 1983, dated 1988)
pIC50: −log10 of the molar value.

These compounds were tested on blood platelet activating factor (PAF) (assay: Inhibition of PAF-induced platelet aggregation in platelet-rich plasma (aggregometer)). Conditions: rabbit platelet-rich plasma, 37° C., stirring; test substance added 2 minutes before PAF (4 nM, sub-maximum dosage); read-out: IC50 (concentration of the test substance which reduces to a half the aggregation of the blood platelets brought about by PAF).
Format: cell-based
Method: The aggregation of the blood platelets was measured with the aid of an aggregometer at 37° C. while stirring. […] The IC50 value (in μM) given in the following Table corresponds to that concentration of the test substance which reduces to a half the aggregation of the blood platelets brought about by PAF.

| Compound | pIC50 |
| --- | --- |
| CCCCCCCCCCCCCCCCCCOC(=O)NCC(COC(=O)CCC[n+]1ccccc1)OC(=O)OC (racemic) [Example 26, 1-[3-[[(RS)-2-[(methoxycarbonyl)oxy[-3-[1-(octadecyloxy)-formamido]propoxy]carbonyl]propyl]pyridinium chloride] | 6.40 |
| CCCCCCCCCCCCCCCCCCOC[C@H](COC(=O)OCC[n+]1ccsc1)OC(=O)OC [Example 12, 3-[2-[[[(R)-2-[(methoxycarbonyl)oxy]-3-(octadecyloxy)propoxy]carbonyl]oxy]ethyl]thiazolium bromide] | 5.70 |
| CCCCCCCCCCCCCCCCCCOC[C@H](COC(=O)OCC[n+]1ccccc1)OC(=O)OC [Example 10, 1-[2-[[(R)-2-[(methoxycarbonyl)oxy]-3-(octadecyloxy)propoxy]carbonyl]oxy]ethyl]pyridinium bromide] | 5.52 |
| CCCCCCCCCCCCCCCCCCNC(=O)OCC(COC(=O)OCC[n+]1ccccc1)OC (racemic) [Example 7b, 1-[2-[[[(RS)-2-methoxy-3-[(octadecylcarbamoyl)oxy]propoxy]carbonyl]oxy]ethyl]pyridinium bromide] | 5.80 |
| CCCCCCCCCCCCCCCCCCNC(=O)OCC(COC(=O)CCC[n+]1ccsc1)OC (racemic) [Example 20b, 3-[3-[[(RS)-2-methoxy-3-[(octadecylcarbamoyl)oxy]propoxy]carbonyl]propyl]thiazolium chloride] | 6.60 |
| CCCCCCCCCCCCCCCCCCNC(=O)OC[C@H](COC(=O)OCC[n+]1ccccc1)OC(=O)OC [Example 11, 1-[2-[[[(R)-2-[(methoxycarbonyl)oxy]-3-(octadecylcarbamoyl)oxy]propoxy]carbonyl]oxy]ethyl]pyridinium bromide] | 6.22 |
| CCCCCCCCCCCCCCCCCCNC(=O)OC[C@@H](COC(=O)CCC[n+]1ccccc1)OC(=O)OC [Example 21b, 1-[3-[[(R)-2-[(methoxycarbonyl)oxy]-3-[(octadecylcarbamoyl)oxy]propoxy]carbonyl]propyl]pyridinium chloride] | 6.70 |
| 1-[3-[[[(RS)-2-(1-methoxyformamido)-3-(octadecyloxy)propoxy]carbonyl]oxy]propyl]pyridinium chloride [Example 16] | 5.82 |
| CCCCCCCCCCCCCCCCCCOC[C@H](COC(=O)OCC[n+]1ccccc1)OC(=O)NC [Example 3, 1-[2-[[[(R)-2-[(methylcarbamoyl)oxy]-3-(octadecyloxy)propoxy]carbonyl]oxy]ethyl]pyridinium bromide] | 5.52 |
| CCCCCCCCCCCCCCCCCCNC(=O)OCC(COC(=O)NCC[n+]1ccccc1)OC (racemic) [Example 7a, 1-[2-[1-[(RS)-2-methoxy-3-(octadecylcarbamoyloxy)propoxy]formamido]ethyl]pyridinium chloride] | 5.70 |
| CCCCCCCCCCCCCCCCCCOCC(COC(=O)CC[n+]1ccccc1)NC(=O)OC (racemic) [Example 15] | 5.52 |
| CCCCCCCCCCCCCCCCCCOC[C@H](COC(=O)CCC[n+]1ccccc1)OC(=O)NC [Example 1, 1-[3-[[(R)-2-[(methylcarbamoyl)oxy]-3-(octadecyloxy)propoxy]carbonyl]-propyl]pyridinium chloride] | 5.80 |

The next lines start with the values.

| pIC50 | Compound |
| --- | --- |
| 6.70 | CCCCCCCCCCCCCCCCCCNC(=O)OC[C@H](COC(=O)CCC[n+]1ccccc1)OC(=O)OC [Example 21d, 1-[3-[[(S)-2-[(methoxycarbonyl)oxy]-3-[(octadecylcarbamoyl)oxy]propoxy]carbonyl]propyl]pyridinium iodide] |
| 7.22 | CCCCCCCCCCCCCCCCCCNC(=O)OC[C@H](COC(=O)CCC[n+]1ccsc1)OC(=O)OC [Example 21f, 3-[3-[[(S)-2-[(methoxycarbonyl)oxy]-3-[(octadecylcarbamoyl)oxy]propoxy]carbonyl]propyl]thiazolium iodide] |
| 6.82 | CCCCCCCCCCCCCCCCCCNC(=O)OCC(COC(=O)CCC[n+]1ccccc1)OC(=O)OC (racemic) [Example 21a, 1-[3-[[(RS)-2-[(methoxycarbonyl)oxy]-3-[(octadecylcarbamoyl)oxy]propoxy]carbonyl]propyl]pyridinium chloride] |
| 7.40 | CCCCCCCCCCCCCCCCCCNC(=O)OC[C@@H](COC(=O)CCC[n+]1ccsc1)OC(=O)OC [Example 21e, 3-[3-[[(R)-2-[(methoxycarbonyl)oxy]-3-[(octadecylcarbamoyl)oxy]propoxy]carbonyl]propyl]thiazolium iodide] |
| 6.82 | CCCCCCCCCCCCCCCCCCNC(=O)OCC(COC(=O)CCC[n+]1ccsc1)NC(=O)OC (racemic) [Example 24, 1-[3-[[(RS)-2-(1-methoxyformamido)-3-(octadecylcarbamoyloxy)propoxy]carbonyl]propyl]thiazolium chloride] |
